Article PMC6778101 (Nature Communications, 2019)
Ends that are not written are not given here. Peptide text beside a SMILES is read from it.

What was measured:
E. coli K-12 BW25113 = experiment: Laboratory evolution of resistance, MIC fold change of adapted lines; format: cell-based, Escherichia coli; conditions: for MIC fold change following 20 transfers: Escherichia coli K-12 BW25113; for MIC fold change after the evolution: MIC evolved / MIC control, 20 transfers, ~120 generations
Text: Our first goal was to study resistance evolution against a set of AMPs and antibiotics. We have followed established protocols with minor modifications to evolve bacterial populations under controlled laboratory conditions[19],[20]. The applied protocol aims to maximize the level of drug resistance in the evolving populations achieved during a fixed time period. We have initiated a laboratory evolution experiment, starting with a single clone of Escherichia coli K-12 BW25113 (abbreviated as E. coli K-12 BW25113). Parallel evolving populations were exposed to increasing concentrations of one of 14 AMPs (Supplementary Table 1). Peptides were chosen based on the following criteria: diverse sources (synthetic/natural), different putative mechanisms of action, structural diversity, and clinical relevance. Another set of populations were exposed to one of 12 clinically relevant antibiotics (Supplementary Table 2), using the same protocol. Accordingly, we have propagated 10 independent populations in the presence of each AMP or antibiotic for ∼120 generations. We isolated a single, representative clone from each population, resulting in 140 AMP-adapted lines and 120 antibiotic-adapted lines. Throughout the paper, we compare the level of resistance in the evolved lines to the corresponding wild-type strain by measuring changes in the drugs’ minimum inhibitory concentrations (MIC).
(§1) The evolutionary protocol was designed to avoid population extinction and to ensure that populations with the highest level of resistance were propagated further. Starting with a subinhibitory drug concentration (Supplementary Data 8), resulting in ~50% growth inhibition, 10 parallel populations per drug were allowed to grow in Minimal Salts medium for 72 h and 300 r.p.m. E. coli K-12 BW25113 and E. coli mutD5 populations were incubated at 30 °C, while E. coli ATCC 25922, S. enterica LT2, K. pneumonia ATCC 10031, and A. baumannii ATCC 17978 were incubated at 37 °C. […] Prior to each transfer, cell growth was monitored by measuring the optical density at 600 nm (OD600 value, Biotek Synergy 2 microplate reader). Only populations with the highest drug concentration (and reaching OD600 > 0.2) were selected for further evolution. A chess-board layout was used on the plate to monitor potential cross-contamination events. […] E. coli mutD5 was adapted to TPII, also in 10 parallel evolving populations.
(§2) MICs were determined using a standard serial broth dilution technique. Briefly, 11-step serial dilutions were prepared in 96-well microtiter plates with three replicates per strain and antimicrobial compound. Each experiment was repeated at least twice. 5 × 10^5 cells/mL were inoculated into each well, and the plates were incubated at 30 °C in case of E. coli K-12 BW25113, and its antibiotic and AMP-adapted lines, or 37 °C in case of the other bacterial species. Plates were shaken at 300 r.p.m. during incubation for 24 and 18 h, respectively. Cell growth was monitored by measuring the optical density (OD600 value, Biotek Synergy 2 microplate reader was used for this purpose). […] Relative MIC was calculated as follows: MICrelative = MICevolved/MICcontrol.

S. enterica LT2 = experiment: as above; format: cell-based, Salmonella enterica subsp. enterica serovar Typhimurium; conditions: Salmonella enterica serovar Typhimurium LT2; parallel line 1 of 10
Text: (§3) The tested pathogens initially sensitive to the AMPs and the antibiotics included Escherichia coli (ATCC® 25922™) (abbreviated as E. coli ATCC 25922), Salmonella enterica subsp. enterica serovar Typhimurium LT2 (abbreviated as S. enterica LT2), Klebsiella pneumoniae subsp. pneumoniae (Schroeter) Trevisan (ATCC® 10031™) (abbreviated as K. pneumoniae ATCC 10031) and Acinetobacter baumannii Bouvet and Grimont (ATCC® 17978™) (abbreviated as A. baumannii ATCC 17978).
The evolutionary protocol was designed to avoid population extinction and to ensure that populations with the highest level of resistance were propagated further. Starting with a subinhibitory drug concentration (Supplementary Data 8), resulting in ~50% growth inhibition, 10 parallel populations per drug were allowed to grow in Minimal Salts medium for 72 h and 300 r.p.m. […] Prior to each transfer, cell growth was monitored by measuring the optical density at 600 nm (OD600 value, Biotek Synergy 2 microplate reader). […]
(§4) MICs were determined using a standard serial broth dilution technique. […] Cell growth was monitored by measuring the optical density (OD600 value, Biotek Synergy 2 microplate reader was used for this purpose). […] Relative MIC was calculated as follows: MICrelative = MICevolved/MICcontrol.

[1] = tested on: E. coli K-12 BW25113 carrying single mutations; experiment: MIC change in single-mutation strains (basS L194R, mlaD a342del, waaY M1†); format: cell-based, Escherichia coli
[2] = tested on: E. coli K-12 BW25113 bearing the metagenomic plasmid library; experiment: Functional metagenomic screen of a soil library, gradient plate selection; format: cell-based, Escherichia coli
E. coli ATCC 25922 = experiment: Laboratory evolution of resistance, MIC fold change of adapted lines; format: cell-based; conditions: Escherichia coli ATCC 25922; parallel line 1 of 10
Text: as §3, §1
as §4, with “technique. Briefly, 11-step serial dilutions were prepared in 96-well microtiter plates with three replicates per strain and antimicrobial compound. Each experiment was repeated at least twice.” for “technique.”

K. pneumoniae ATCC 10031 = experiment: as above; format: cell-based; conditions: Klebsiella pneumoniae ATCC 10031; parallel line 1 of 10
Text: as §3, §1
as §4, with “technique. Briefly, 11-step serial dilutions were prepared in 96-well microtiter plates with three replicates per strain and antimicrobial compound. Each experiment was repeated at least twice.” for “technique.”

A. baumannii ATCC 17978 [3] = experiment: as above; format: cell-based; conditions: Acinetobacter baumannii ATCC 17978; parallel line 1 of 10
Text: as §3, §1
as §4, with “technique. Briefly, 11-step serial dilutions were prepared in 96-well microtiter plates with three replicates per strain and antimicrobial compound. Each experiment was repeated at least twice.” for “technique.”

Human red blood cells = conditions: previous work; cited from earlier work
Text: Finally, our work identifies that TPII and CP1 are promising candidates for future therapeutic considerations, for the following reasons. They are active against a wide range of bacterial pathogens with a relatively high activity/toxicity (ATI) index. We note however, that existing data on the toxicity of the tachyplesin antimicrobial family are controversial[48],[59]–[61]. […] Furthermore, evolution of resistance against these AMPs is improbable in E. coli. We propos ...

A. baumannii ATCC 17978 [4] = format: cell-based, Acinetobacter baumannii; conditions: Acinetobacter baumannii ATCC 17978; broth dilution, 37 °C, 18 h
Procedure: Unless otherwise indicated, we used E. coli K-12 BW25113 in all high-throughput experiments. To investigate the impact of mutation rate on evolution of AMP resistance, we initiated laboratory evolution with a mutator strain E. coli mutD5 that carries mutations in the dnaQ gene (L73W and A164V).
as §2

[5] = parallel line 1 of 10 adapted to the agent

NC[C@H]1O[C@H](O[C@H]2[C@H](O)[C@@H](O[C@H]3O[C@H](CO)[C@@H](O)[C@H](N)[C@H]3O)[C@H](N)C[C@@H]2N)[C@H](O)[C@@H](O)[C@@H]1O [KAN, Kanamycin]
MIC fold change following 20 transfers (E. coli K-12 BW25113; [5]): 256 fold
MIC fold change following 20 transfers (E. coli K-12 BW25113; parallel line 2 of 10 adapted to the agent): 256 fold
MIC fold change following 20 transfers (E. coli K-12 BW25113; parallel line 3 of 10 adapted to the agent): 177 fold
MIC fold change following 20 transfers (E. coli K-12 BW25113; parallel line 4 of 10 adapted to the agent): 177 fold
MIC fold change following 20 transfers (E. coli K-12 BW25113; parallel line 5 of 10 adapted to the agent): 93 fold
MIC fold change following 20 transfers (E. coli K-12 BW25113; parallel line 6 of 10 adapted to the agent): 256 fold
MIC fold change following 20 transfers (E. coli K-12 BW25113; parallel line 7 of 10 adapted to the agent): 256 fold
MIC fold change following 20 transfers (E. coli K-12 BW25113; parallel line 8 of 10 adapted to the agent): 49 fold
MIC fold change following 20 transfers (E. coli K-12 BW25113; parallel line 9 of 10 adapted to the agent): 177 fold
MIC fold change following 20 transfers (E. coli K-12 BW25113; parallel line 10 of 10 adapted to the agent): 93 fold
MIC fold change after the evolution (E. coli K-12 BW25113; parallel-evolved line 1): 256
MIC fold change after the evolution (E. coli K-12 BW25113; parallel-evolved line 2): 256
MIC fold change after the evolution (E. coli K-12 BW25113; parallel-evolved line 3): 177
MIC fold change after the evolution (E. coli K-12 BW25113; parallel-evolved line 4): 177
MIC fold change after the evolution (E. coli K-12 BW25113; parallel-evolved line 5): 93
MIC fold change after the evolution (E. coli K-12 BW25113; parallel-evolved line 6): 256
MIC fold change after the evolution (E. coli K-12 BW25113; parallel-evolved line 7): 256
MIC fold change after the evolution (E. coli K-12 BW25113; parallel-evolved line 8): 49
MIC fold change after the evolution (E. coli K-12 BW25113; parallel-evolved line 9): 177
MIC fold change after the evolution (E. coli K-12 BW25113; parallel-evolved line 10): 93

CC[C@H](C)[C@@H]1NC(=O)CNC(=O)[C@H](CCCNC(=N)N)NC(=O)[C@H](Cc2ccc(O)cc2)NC(=O)[C@@H]2CSSC[C@H](NC1=O)C(=O)N[C@@H](Cc1ccc(O)cc1)C(=O)N[C@@H](CCCNC(=N)N)C(=O)N[C@@H](CCCCN)C(=O)N[C@H](C(=O)N[C@@H](CCCNC(=N)N)C(N)=O)CSSC[C@H](NC(=O)[C@H](Cc1c[nH]c3ccccc13)NC(=O)[C@@H](N)CCCNC(=N)N)C(=O)N[C@@H](Cc1ccccc1)C(=O)N[C@@H](CCCNC(=N)N)C(=O)N[C@@H](C(C)C)C(=O)N2 [TPII, tachyplesin II] (HELM PEPTIDE1{R.W.C.F.R.V.C.Y.R.G.I.C.Y.R.K.C.R.[am]}$PEPTIDE1,PEPTIDE1,3:R3-16:R3|PEPTIDE1,PEPTIDE1,7:R3-12:R3$$$V2.0; N-terminus and C-terminus assumed; bridges inferred)
MIC fold change following 20 transfers (S. enterica LT2): 1.0 fold
resistance conferred by single mutations basS L194R, mlaD a342del, waaY M1† (in words) ([1]; mutations inserted individually into E. coli K-12 BW25113): no resistance
Relative MIC compared to the wild-type ([1]; strain with reinserted mutation basS L194R (CTG→CGG)): 1.0
Relative MIC compared to the wild-type ([1]; strain with reinserted mutation mlaD a342del): 1.0
Relative MIC compared to the wild-type ([1]; strain with reinserted mutation waaY M1† (ATG→CTG)): 1.0
resistant clones / resistance-conferring DNA segments from the soil metagenomic library (in words) [2]: failed to find DNA segments that would provide resistance
Number of resistant contig ([2]; soil metagenomic library, 1.5–5 kb fragments, gradient plate, 30 °C, 24 h): 0
MIC fold change following 20 transfers (E. coli ATCC 25922): 4.8 fold
MIC fold change following 20 transfers (K. pneumoniae ATCC 10031): 5.6 fold
MIC fold change following 20 transfers (A. baumannii ATCC 17978 [3]): 4.3 fold
MIC fold change following 20 transfers (E. coli K-12 BW25113; [5]): 1.0 fold
average MIC fold change after the evolution (E. coli K-12 BW25113; average of MIC fold change of the 10 independently adapted populations): 1.000
MIC fold change after the evolution (E. coli K-12 BW25113; parallel-evolved line 1): 1
MIC fold change after the evolution (E. coli K-12 BW25113; parallel-evolved line 2): 1
MIC fold change after the evolution (E. coli K-12 BW25113; parallel-evolved line 3): 1
MIC fold change after the evolution (E. coli K-12 BW25113; parallel-evolved line 4): 1
MIC fold change after the evolution (E. coli K-12 BW25113; parallel-evolved line 5): 1
MIC fold change after the evolution (E. coli K-12 BW25113; parallel-evolved line 6): 1
MIC fold change after the evolution (E. coli K-12 BW25113; parallel-evolved line 7): 1
MIC fold change after the evolution (E. coli K-12 BW25113; parallel-evolved line 8): 1
MIC fold change after the evolution (E. coli K-12 BW25113; parallel-evolved line 9): 1
MIC fold change after the evolution (E. coli K-12 BW25113; parallel-evolved line 10): 1
resistance in evolved lines after laboratory evolution (in words) (E. coli K-12 BW25113; ~120 generations under increasing drug concentration): failed to detect any resistance

SWLSKTAKKLENSAKKRISEGIAIAIQGGPR [CP1, Cecropin P1]
toxicity or haemolytic activity (in words) (Human red blood cells): negligible toxicity or haemolytic activity
MIC (A. baumannii ATCC 17978 [4]): 0.6 to 1.2 µM
